Assay results from US8541395B2 (priority 2009, dated 2013).

Columns and labels:
Cav3.2 = Cav3.2 (Homo sapiens, UniProt O95180); type: cell-based; conditions: 100 μM; n=2
Description: (§1) The studies were conducted according to the conventional procedures.
(§2) The exposure duration of each channel was 5 minutes. […] Any left current after exposure to this dose was digitally subtracted to eliminate the contribution of any endogenous current.

HCN4 = molecular target: T1, HCN4 (Homo sapiens, UniProt Q9Y3Q4); test: Patch clamp assay, ion channel inhibition; conditions: read-out: Mean % inhibition (positive control)
T1 sequence (Q9Y3Q4 1-1203): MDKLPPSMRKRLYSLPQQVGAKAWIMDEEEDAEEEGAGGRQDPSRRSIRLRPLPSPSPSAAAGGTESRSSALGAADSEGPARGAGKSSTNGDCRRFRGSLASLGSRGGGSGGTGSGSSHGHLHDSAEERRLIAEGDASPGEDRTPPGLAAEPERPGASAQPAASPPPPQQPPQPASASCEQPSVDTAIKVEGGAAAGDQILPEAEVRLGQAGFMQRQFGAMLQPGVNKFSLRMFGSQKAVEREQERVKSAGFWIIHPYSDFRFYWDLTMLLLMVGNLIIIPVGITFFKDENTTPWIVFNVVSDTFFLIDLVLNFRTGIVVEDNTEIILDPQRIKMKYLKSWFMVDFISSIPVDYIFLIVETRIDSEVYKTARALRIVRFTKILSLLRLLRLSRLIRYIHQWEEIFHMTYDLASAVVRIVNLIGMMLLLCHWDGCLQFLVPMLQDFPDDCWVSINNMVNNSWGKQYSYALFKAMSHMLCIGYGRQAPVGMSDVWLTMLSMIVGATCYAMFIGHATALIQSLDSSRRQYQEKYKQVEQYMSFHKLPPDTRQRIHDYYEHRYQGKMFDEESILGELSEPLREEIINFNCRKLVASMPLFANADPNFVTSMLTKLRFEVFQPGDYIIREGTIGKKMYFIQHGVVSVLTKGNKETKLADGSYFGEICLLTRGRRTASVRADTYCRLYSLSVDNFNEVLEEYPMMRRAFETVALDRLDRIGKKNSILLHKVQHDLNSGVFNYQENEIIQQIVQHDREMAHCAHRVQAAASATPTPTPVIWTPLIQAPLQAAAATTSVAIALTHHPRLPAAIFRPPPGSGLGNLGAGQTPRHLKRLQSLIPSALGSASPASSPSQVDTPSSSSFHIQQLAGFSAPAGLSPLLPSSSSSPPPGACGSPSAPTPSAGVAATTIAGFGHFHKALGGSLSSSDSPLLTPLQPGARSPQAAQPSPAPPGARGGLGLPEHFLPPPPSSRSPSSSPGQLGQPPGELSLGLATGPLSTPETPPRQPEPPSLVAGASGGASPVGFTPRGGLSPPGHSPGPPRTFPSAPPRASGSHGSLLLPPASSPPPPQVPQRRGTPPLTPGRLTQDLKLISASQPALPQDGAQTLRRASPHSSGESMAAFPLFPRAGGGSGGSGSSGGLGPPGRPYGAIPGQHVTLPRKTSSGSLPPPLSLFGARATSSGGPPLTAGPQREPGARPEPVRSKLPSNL
Description: as §1, §2

HCN2 = molecular target: T2, HCN2 (Homo sapiens, UniProt Q9UL51); test: Patch clamp assay, ion channel inhibition; conditions: read-out: Mean % inhibition (positive control)
T2 sequence (Q9UL51 1-889): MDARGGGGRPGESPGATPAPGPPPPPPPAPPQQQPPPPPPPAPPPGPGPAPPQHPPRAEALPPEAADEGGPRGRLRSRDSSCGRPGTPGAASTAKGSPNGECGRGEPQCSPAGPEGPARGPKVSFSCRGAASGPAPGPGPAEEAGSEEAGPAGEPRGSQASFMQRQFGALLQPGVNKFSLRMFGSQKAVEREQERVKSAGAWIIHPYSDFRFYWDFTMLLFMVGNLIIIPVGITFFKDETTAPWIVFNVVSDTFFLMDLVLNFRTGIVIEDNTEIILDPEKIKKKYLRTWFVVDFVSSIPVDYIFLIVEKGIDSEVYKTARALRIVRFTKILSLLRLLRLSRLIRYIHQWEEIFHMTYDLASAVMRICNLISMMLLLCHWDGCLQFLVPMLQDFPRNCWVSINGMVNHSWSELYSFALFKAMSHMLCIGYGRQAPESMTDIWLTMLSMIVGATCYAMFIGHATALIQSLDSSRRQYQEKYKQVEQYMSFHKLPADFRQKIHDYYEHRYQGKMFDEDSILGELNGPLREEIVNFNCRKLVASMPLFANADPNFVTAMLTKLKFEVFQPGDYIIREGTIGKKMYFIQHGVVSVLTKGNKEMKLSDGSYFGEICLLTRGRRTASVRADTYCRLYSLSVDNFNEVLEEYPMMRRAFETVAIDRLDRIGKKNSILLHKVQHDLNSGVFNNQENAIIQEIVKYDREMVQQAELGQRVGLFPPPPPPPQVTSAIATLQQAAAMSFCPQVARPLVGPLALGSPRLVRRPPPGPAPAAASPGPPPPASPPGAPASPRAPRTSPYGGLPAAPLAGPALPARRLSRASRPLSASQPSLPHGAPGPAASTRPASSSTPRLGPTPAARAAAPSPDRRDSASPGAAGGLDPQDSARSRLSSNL
Description: as §1, §2

Cav3.2, sequence (O95180 whole entry): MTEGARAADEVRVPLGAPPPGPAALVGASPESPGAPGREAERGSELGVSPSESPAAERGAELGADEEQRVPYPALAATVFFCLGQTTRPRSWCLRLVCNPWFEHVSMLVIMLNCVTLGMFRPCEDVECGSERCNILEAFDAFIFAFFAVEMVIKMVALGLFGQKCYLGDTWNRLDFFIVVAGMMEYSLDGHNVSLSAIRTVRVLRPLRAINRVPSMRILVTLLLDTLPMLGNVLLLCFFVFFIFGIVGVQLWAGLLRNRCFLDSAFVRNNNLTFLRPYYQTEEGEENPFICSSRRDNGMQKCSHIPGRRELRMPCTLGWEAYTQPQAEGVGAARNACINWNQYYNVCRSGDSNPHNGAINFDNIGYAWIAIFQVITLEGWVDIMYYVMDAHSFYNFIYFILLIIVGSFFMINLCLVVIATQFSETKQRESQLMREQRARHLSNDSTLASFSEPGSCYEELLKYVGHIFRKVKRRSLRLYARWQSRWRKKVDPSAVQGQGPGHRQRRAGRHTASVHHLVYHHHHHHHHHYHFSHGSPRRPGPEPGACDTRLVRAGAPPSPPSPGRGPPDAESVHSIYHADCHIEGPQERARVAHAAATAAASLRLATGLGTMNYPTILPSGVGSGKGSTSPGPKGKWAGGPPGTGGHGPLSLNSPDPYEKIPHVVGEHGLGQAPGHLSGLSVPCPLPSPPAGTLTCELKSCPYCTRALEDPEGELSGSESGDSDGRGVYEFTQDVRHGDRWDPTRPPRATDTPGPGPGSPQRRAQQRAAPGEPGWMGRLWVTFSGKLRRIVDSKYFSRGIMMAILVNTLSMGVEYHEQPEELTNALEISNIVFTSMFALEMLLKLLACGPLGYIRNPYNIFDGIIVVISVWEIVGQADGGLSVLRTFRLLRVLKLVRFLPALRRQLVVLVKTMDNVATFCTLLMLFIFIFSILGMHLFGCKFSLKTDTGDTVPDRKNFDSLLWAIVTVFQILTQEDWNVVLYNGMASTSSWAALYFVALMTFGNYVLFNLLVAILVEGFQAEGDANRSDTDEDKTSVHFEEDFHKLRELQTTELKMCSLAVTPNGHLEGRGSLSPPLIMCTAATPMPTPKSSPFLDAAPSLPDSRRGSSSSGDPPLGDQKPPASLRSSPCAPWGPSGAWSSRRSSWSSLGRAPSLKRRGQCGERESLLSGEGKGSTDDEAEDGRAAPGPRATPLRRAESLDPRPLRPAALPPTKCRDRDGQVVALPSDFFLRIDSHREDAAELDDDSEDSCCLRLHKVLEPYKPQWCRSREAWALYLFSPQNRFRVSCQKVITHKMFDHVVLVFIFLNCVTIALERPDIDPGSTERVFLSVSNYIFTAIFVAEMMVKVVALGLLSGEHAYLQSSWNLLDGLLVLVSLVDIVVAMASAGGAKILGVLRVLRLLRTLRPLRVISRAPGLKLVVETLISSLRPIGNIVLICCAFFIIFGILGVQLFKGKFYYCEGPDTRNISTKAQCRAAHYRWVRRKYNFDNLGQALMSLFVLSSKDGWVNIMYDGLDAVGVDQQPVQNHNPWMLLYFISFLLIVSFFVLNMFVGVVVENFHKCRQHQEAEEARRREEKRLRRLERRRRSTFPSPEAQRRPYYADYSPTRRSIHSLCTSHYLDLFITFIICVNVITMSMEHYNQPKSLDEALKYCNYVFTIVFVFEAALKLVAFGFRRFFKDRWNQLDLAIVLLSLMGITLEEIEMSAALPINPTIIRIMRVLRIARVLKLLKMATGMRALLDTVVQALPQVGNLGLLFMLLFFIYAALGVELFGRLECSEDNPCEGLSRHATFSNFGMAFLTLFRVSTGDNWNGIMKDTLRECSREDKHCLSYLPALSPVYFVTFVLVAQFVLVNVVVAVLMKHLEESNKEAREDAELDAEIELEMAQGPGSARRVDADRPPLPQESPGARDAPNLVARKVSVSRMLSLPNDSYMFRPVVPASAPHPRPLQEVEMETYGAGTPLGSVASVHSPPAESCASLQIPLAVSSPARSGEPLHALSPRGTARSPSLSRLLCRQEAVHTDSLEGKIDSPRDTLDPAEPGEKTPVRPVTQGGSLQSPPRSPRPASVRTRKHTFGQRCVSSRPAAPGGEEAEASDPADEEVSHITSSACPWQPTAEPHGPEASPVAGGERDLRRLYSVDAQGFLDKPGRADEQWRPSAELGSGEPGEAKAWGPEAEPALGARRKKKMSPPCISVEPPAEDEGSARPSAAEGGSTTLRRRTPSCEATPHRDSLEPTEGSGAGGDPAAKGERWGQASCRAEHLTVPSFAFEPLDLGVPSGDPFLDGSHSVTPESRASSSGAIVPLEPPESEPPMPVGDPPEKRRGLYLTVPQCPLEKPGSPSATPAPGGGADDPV

SMILES	Mean % inhibition (positive control) (Cav3.2) [%]	inhibition at 10 µM (HCN4) [%]	inhibition at 100 µM (HCN2) [%]
[Ni] [Nickel]	76.6	–	–
COc1ccc(CCN(C)CCCN2CCc3cc(OC)c(OC)cc3CC2=O)cc1OC [Zatebradine]	–	88.3	96.1
